Experimental data: patent US7880007B2, “Bicyclic substituted phenyl piperidine modulators of muscarinic receptors” (Vertex Pharmaceuticals Incorporated, priority 2004, dated 2011)

What was measured:
Type in all cases: cell-based
[1] = target: T1, M3 muscarinic receptor (Homo sapiens, UniProt P20309); test: Functional mobilization of intracellular calcium (FLIPR), M3-CHO cells; conditions: for M3 Efficacy / Emax: 100% efficacy = maximum response obtained with the Carbachol control; for M3 Activity: M3-CHO cells, calcium mobilization (FLIPR)
T1 construct: expressed in transfected cells; host or cells: CHO (M3-CHO)
Procedure, shortened: (§1)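 FLIPR fluorescence (ex 488, em 540 nm) recorded 60 sec after compound addition to dye-loaded CHO cells. Agonist mode: compound alone. Antagonist mode: 15 min compound pre-incubation, then carbachol at EC80, or co-application. Efficacy expressed as % of maximal carbachol response.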

[2] = target: T2, M4 muscarinic receptor (Homo sapiens, UniProt P08173); test: Functional mobilization of intracellular calcium (FLIPR), M4-CHO cells; conditions: for M4 Efficacy / Emax: 100% efficacy = maximum response obtained with the Carbachol control; for M4 Activity: M4-CHO cells, calcium mobilization (FLIPR)
T2 construct: expressed in transfected cells; host or cells: CHO (M4-CHO)
T2 sequence (P08173 1-479): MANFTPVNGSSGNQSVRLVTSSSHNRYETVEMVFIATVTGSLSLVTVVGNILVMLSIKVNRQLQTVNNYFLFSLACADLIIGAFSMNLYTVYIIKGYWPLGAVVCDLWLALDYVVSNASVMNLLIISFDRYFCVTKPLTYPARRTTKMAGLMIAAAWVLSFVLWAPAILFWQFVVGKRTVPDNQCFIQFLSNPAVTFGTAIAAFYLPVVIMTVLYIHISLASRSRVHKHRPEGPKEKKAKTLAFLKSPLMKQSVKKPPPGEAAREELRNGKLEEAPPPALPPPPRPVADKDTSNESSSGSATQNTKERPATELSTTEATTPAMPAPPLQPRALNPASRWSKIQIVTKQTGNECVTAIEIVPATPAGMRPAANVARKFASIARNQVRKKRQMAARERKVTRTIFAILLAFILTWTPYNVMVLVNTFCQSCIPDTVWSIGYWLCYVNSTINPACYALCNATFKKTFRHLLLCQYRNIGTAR
Procedure, shortened: as §1

[3] = target: T3, M2 muscarinic receptor (Homo sapiens, UniProt P08172); test: Functional mobilization of intracellular calcium (FLIPR), M2-CHO cells; conditions: for M2 Efficacy / Emax: 100% efficacy = maximum response obtained with the Carbachol control; for M2 Activity: M2-CHO cells, calcium mobilization (FLIPR)
T3 construct: expressed in transfected cells; host or cells: CHO (M2-CHO)
T3 sequence (P08172 1-466): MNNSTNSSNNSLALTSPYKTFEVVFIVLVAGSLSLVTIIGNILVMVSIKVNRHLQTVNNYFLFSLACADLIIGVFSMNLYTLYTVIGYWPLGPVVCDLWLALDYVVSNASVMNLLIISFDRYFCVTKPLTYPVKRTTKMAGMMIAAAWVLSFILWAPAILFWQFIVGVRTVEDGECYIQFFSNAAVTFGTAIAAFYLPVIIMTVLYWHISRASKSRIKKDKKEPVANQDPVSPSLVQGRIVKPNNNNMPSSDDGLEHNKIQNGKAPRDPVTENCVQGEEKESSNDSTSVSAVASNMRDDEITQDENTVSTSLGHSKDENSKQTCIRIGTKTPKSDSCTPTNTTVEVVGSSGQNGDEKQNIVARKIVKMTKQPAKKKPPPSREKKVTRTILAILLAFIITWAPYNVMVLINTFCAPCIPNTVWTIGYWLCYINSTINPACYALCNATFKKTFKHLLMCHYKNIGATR
Procedure, shortened: as §1

[4] = target: T4, M1 muscarinic receptor (Homo sapiens, UniProt P11229); test: Functional mobilization of intracellular calcium (FLIPR), M1-CHO cells; conditions: for M1 Efficacy / Emax: 100% efficacy = maximum response obtained with the Carbachol control; for M1 Activity: M1-CHO cells, calcium mobilization (FLIPR)
T4 construct: expressed in transfected cells; host or cells: CHO (M1-CHO)
T4 sequence (P11229 1-460): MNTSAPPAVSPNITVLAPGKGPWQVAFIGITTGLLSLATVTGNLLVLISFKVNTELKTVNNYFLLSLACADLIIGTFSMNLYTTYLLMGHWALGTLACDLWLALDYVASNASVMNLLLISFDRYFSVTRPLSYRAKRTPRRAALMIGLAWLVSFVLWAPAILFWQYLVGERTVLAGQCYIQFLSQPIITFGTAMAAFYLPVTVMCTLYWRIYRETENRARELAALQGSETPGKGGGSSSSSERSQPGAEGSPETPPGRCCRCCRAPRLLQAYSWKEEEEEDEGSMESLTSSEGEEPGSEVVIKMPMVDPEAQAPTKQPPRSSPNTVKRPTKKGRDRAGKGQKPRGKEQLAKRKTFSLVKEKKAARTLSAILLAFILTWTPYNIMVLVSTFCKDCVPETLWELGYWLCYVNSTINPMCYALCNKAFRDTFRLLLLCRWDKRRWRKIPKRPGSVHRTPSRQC
Procedure, shortened: as §1

T1 sequence (P20309 whole entry): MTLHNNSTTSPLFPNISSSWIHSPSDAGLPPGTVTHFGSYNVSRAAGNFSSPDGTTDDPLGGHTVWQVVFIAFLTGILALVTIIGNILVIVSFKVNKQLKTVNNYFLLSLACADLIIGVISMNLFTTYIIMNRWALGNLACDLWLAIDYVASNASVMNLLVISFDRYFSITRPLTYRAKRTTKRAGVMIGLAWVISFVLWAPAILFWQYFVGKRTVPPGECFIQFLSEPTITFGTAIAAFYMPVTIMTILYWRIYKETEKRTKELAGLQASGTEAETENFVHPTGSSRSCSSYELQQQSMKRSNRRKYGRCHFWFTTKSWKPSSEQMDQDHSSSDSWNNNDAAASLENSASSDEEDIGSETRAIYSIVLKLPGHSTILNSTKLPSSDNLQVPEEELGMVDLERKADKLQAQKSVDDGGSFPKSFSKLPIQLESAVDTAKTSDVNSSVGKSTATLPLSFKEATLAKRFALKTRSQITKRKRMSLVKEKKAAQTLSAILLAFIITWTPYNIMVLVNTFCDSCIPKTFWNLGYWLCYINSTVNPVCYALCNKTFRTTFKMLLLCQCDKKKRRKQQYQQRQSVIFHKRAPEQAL

## COc1ccc(Cl)cc1C1CCN(C2CCC(=NOc3ccccc3)CC2)CC1 (stereo not drawn) [Compound 336]
[1]
  M3 Efficacy: + (efficacy was calculated to be less than 25%)
  M3 Activity: + (activity was measured to be greater than 5.0 μM)
[2]
  M4 Efficacy: ++ (efficacy was calculated to be from 100% to 25%)
  M4 Activity: +++ (activity was measured to be less than 1.0 μM)
[3]
  M2 Efficacy: + (efficacy was calculated to be less than 25%)
  M2 Activity: + (activity was measured to be greater than 5.0 μM)
[4]
  M1 Efficacy: ++ (efficacy was calculated to be from 100% to 25%)
  M1 Activity: ++ (activity was measured to be from 1.0 μM to 5.0 μM)

## CCOC(=O)N1CCC(CN2CCC(c3cccc(C(F)(F)F)c3C)CC2)CC1 [Compound 337]
[1]
  Emax: < 25%
  M3 Activity: + (activity was measured to be greater than 5.0 μM)
[2]
  Emax: 25 to 100%
  M4 Activity: +++ (activity was measured to be less than 1.0 μM)
[3]
  Emax: < 25%
  M2 Activity: + (activity was measured to be greater than 5.0 μM)
[4]
  Emax: 25 to 100%
  M1 Activity: ++ (activity was measured to be from 1.0 μM to 5.0 μM)

## COc1ccccc1C1CCN(C2CC(c3ccccc3)C(c3ccccc3)C2)CC1 (stereo not drawn) [Compound 339]
[1]
  Emax: < 25%
  M3 Activity: + (activity was measured to be greater than 5.0 μM)
[2]
  Emax: 25 to 100%
  M4 Activity: + (activity was measured to be greater than 5.0 μM)
[3]
  Emax: < 25%
  M2 Activity: + (activity was measured to be greater than 5.0 μM)
[4]
  Emax: 25 to 100%
  M1 Activity: + (activity was measured to be greater than 5.0 μM)

## COc1ccc(F)cc1C1(O)CCN(C[C@H]2C[C@H]3C=C[C@H]2C3)CC1 [Compound 340]
[1]
  Emax: < 25%
  M3 Activity: + (activity was measured to be greater than 5.0 μM)
[2]
  Emax: 25 to 100%
  M4 Activity: +++ (activity was measured to be less than 1.0 μM)
[3]
  Emax: 25 to 100%
  M2 Activity: + (activity was measured to be greater than 5.0 μM)
[4]
  Emax: 25 to 100%
  M1 Activity: + (activity was measured to be greater than 5.0 μM)

## Cc1ccc(C)c(C2CCN(C3CC4CCC3C4)CC2)c1 (stereo not drawn) [Compound 341]
[1]
  M3 Activity: + (activity was measured to be greater than 5.0 μM)
[2]
  Emax: 25 to 100%
  M4 Activity: ++ (activity was measured to be from 1.0 μM to 5.0 μM)
[3]
  Emax: < 25%
  M2 Activity: + (activity was measured to be greater than 5.0 μM)
[4]
  Emax: < 25%
  M1 Activity: + (activity was measured to be greater than 5.0 μM)

## COc1ccc(-c2ccc(C#N)cc2)cc1C1CCN(C2CCCCC2)CC1 [Compound 342]
[1]
  Emax: < 25%
  M3 Activity: + (activity was measured to be greater than 5.0 μM)
[2]
  Emax: 25 to 100%
  M4 Activity: ++ (activity was measured to be from 1.0 μM to 5.0 μM)
[3]
  Emax: < 25%
  M2 Activity: + (activity was measured to be greater than 5.0 μM)
[4]
  Emax: 25 to 100%
  M1 Activity: + (activity was measured to be greater than 5.0 μM)

## FC(F)(F)c1ccccc1C1CCN(C2CC3CCC(C3)C2)CC1 (stereo not drawn) [Compound 343]
[1]
  Emax: < 25%
  M3 Activity: + (activity was measured to be greater than 5.0 μM)
[2]
  Emax: 25 to 100%
  M4 Activity: +++ (activity was measured to be less than 1.0 μM)
[3]
  Emax: < 25%
  M2 Activity: + (activity was measured to be greater than 5.0 μM)
[4]
  Emax: 25 to 100%
  M1 Activity: + (activity was measured to be greater than 5.0 μM)

## CCOC(=O)N1CCC(CN2CCC(c3cc(-c4ccc(C#N)cc4)ccc3OC)CC2)CC1 [Compound 345]
[1]
  Emax: < 25%
  M3 Activity: + (activity was measured to be greater than 5.0 μM)
[2]
  Emax: 25 to 100%
  M4 Activity: +++ (activity was measured to be less than 1.0 μM)
[3]
  Emax: < 25%
  M2 Activity: + (activity was measured to be greater than 5.0 μM)
[4]
  Emax: 25 to 100%
  M1 Activity: ++ (activity was measured to be from 1.0 μM to 5.0 μM)

## COc1ccccc1C1CCN(CC2CC2)CC1 [Compound 346]
[1]
  Emax: < 25%
  M3 Activity: + (activity was measured to be greater than 5.0 μM)
[2]
  Emax: < 25%
  M4 Activity: + (activity was measured to be greater than 5.0 μM)
[3]
  Emax: < 25%
  M2 Activity: + (activity was measured to be greater than 5.0 μM)
[4]
  Emax: < 25%
  M1 Activity: + (activity was measured to be greater than 5.0 μM)

## COc1ccc(-c2ccccc2C(N)=O)cc1C1CCN([C@H]2C[C@H]3CC[C@H]2C3)CC1 [Compound 347]
[1]
  Emax: < 25%
  M3 Activity: + (activity was measured to be greater than 5.0 μM)
[2]
  Emax: 25 to 100%
  M4 Activity: ++ (activity was measured to be from 1.0 μM to 5.0 μM)
[3]
  Emax: < 25%
  M2 Activity: + (activity was measured to be greater than 5.0 μM)
[4]
  Emax: < 25%
  M1 Activity: + (activity was measured to be greater than 5.0 μM)

## COc1cc(F)ccc1C1CCN(C2CCOCC2)CC1 [Compound 349]
[1]
  Emax: < 25%
  M3 Activity: + (activity was measured to be greater than 5.0 μM)
[2]
  Emax: 25 to 100%
  M4 Activity: +++ (activity was measured to be less than 1.0 μM)
[3]
  Emax: < 25%
  M2 Activity: + (activity was measured to be greater than 5.0 μM)
[4]
  Emax: 25 to 100%
  M1 Activity: + (activity was measured to be greater than 5.0 μM)

## C=CCON=C1CCC(N2CCC(c3cc(Cl)ccc3OC)CC2)CC1 (stereo not drawn) [Compound 350]
[1]
  M3 Efficacy: + (efficacy was calculated to be less than 25%)
  M3 Activity: + (activity was measured to be greater than 5.0 μM)
[2]
  M4 Efficacy: ++ (efficacy was calculated to be from 100% to 25%)
  M4 Activity: +++ (activity was measured to be less than 1.0 μM)
[3]
  M2 Efficacy: + (efficacy was calculated to be less than 25%)
  M2 Activity: ++ (activity was measured to be from 1.0 μM to 5.0 μM)
[4]
  M1 Efficacy: ++ (efficacy was calculated to be from 100% to 25%)
  M1 Activity: +++ (activity was measured to be less than 1.0 μM)

## COc1ccc(-c2ccc(C#N)cc2)cc1C1CCN(C2CCOCC2)CC1 [Compound 352]
[1]
  Emax: < 25%
  M3 Activity: + (activity was measured to be greater than 5.0 μM)
[2]
  Emax: 25 to 100%
  M4 Activity: + (activity was measured to be greater than 5.0 μM)
[3]
  Emax: < 25%
  M2 Activity: + (activity was measured to be greater than 5.0 μM)
[4]
  Emax: 25 to 100%
  M1 Activity: + (activity was measured to be greater than 5.0 μM)

## CNC(=O)c1ccc(-c2ccc(OC)c(C3CCN(C4CCCCC4)CC3)c2)cc1Cl [Compound 353]
[1]
  Emax: < 25%
  M3 Activity: + (activity was measured to be greater than 5.0 μM)
[2]
  Emax: 25 to 100%
  M4 Activity: ++ (activity was measured to be from 1.0 μM to 5.0 μM)
[3]
  Emax: < 25%
  M2 Activity: + (activity was measured to be greater than 5.0 μM)
[4]
  Emax: < 25%
  M1 Activity: + (activity was measured to be greater than 5.0 μM)
